target: T1, NK3 receptor (Homo sapiens, UniProt P29371); experiment: not given; conditions: clinical trials; cited from earlier work
T1 sequence (P29371 1-465): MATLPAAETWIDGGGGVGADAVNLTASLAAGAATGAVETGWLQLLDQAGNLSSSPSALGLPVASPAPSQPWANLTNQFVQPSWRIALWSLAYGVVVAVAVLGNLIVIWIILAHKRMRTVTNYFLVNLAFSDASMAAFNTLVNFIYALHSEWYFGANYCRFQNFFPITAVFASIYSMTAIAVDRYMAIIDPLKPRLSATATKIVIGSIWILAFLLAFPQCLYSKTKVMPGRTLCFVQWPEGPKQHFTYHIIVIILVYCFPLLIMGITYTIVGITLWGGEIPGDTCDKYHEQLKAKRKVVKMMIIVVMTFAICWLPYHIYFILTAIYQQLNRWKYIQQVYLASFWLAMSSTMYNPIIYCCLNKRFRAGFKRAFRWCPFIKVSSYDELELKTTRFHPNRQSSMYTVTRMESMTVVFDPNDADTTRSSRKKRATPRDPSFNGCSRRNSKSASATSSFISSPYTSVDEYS

Structure (SMILES)	effect on cognitive behaviour of schizophrenics
CC[C@H](NC(=O)c1c(O)c(-c2ccccc2)nc2ccccc12)c1ccccc1 [talnetant]	ameliorate the cognitive behaviour of schizophrenics

target: T1, NK3 receptor; experiment: NK3 receptor affinity (Ki); format: binding; conditions: not given

Structure (SMILES)	Ki
CC[C@H](NC(=O)c1c(C)n(-c2ccccc2)c(=O)c2c(Cl)cccc12)c1ccc(Cl)cc1 [Example 1as, 8-Chloro-3-methyl-1-oxo-2-phenyl-1,2-dihydro-isoquinoline-4-carboxylic acid [(S)-1-(4-chloro-phenyl)-propyl]-amide]	250 nM
CC[C@H](NC(=O)c1c(C)n(-c2ccccc2)c(=O)c2c(Cl)cccc12)c1ccc(F)cc1 [Example 1at, 8-Chloro-3-methyl-1-oxo-2-phenyl-1,2-dihydro-isoquinoline-4-carboxylic acid [(S)-1-(4-fluoro-phenyl)-propyl]-amide]	180 nM
CC[C@H](NC(=O)c1c(C)n(-c2ccccc2)c(=O)c2c(Cl)cccc12)c1ccccc1F [Example 1au, 8-Chloro-3-methyl-1-oxo-2-phenyl-1,2-dihydro-isoquinoline-4-carboxylic acid [(S)-1-(2-fluoro-phenyl)-propyl]-amide]	270 nM
CC[C@H](NC(=O)c1c(C)n(-c2ccccc2)c(=O)c2c(Cl)cccc12)c1cccc(Cl)c1 [Example 1av, 8-Chloro-3-methyl-1-oxo-2-phenyl-1,2-dihydro-isoquinoline-4-carboxylic acid [(S)-1-(3-chloro-phenyl)-propyl]-amide]	39 nM
Cc1c(C(=O)N[C@H](c2cccc(Cl)c2)C2CC2)c2cccc(Cl)c2c(=O)n1-c1ccccc1 [Example 1aw, 8-Chloro-3-methyl-1-oxo-2-phenyl-1,2-dihydro-isoquinoline-4-carboxylic acid [(S)-(3-chloro-phenyl)-cyclopropyl-methyl]-amide]	59 nM
Cc1c(C(=O)N[C@H](c2ccc(Cl)cc2)C2CC2)c2cccc(Cl)c2c(=O)n1-c1ccccc1 [Example 1ax, 8-Chloro-3-methyl-1-oxo-2-phenyl-1,2-dihydro-isoquinoline-4-carboxylic acid [(S)-(4-chloro-phenyl)-cyclopropyl-methyl]-amide]	150 nM
CC[C@H](NC(=O)c1c(C)n(-c2ccccc2)c(=O)c2c(Cl)cccc12)c1cccc(F)c1 [Example 1ay, 8-Chloro-3-methyl-1-oxo-2-phenyl-1,2-dihydro-isoquinoline-4-carboxylic acid [(S)-1-(3-fluoro-phenyl)-propyl]-amide]	47 nM

Other lines, results leading:

Ki	Structure (SMILES)
55 nM	Cc1c(C(=O)N[C@H](c2ccc(F)cc2)C2CC2)c2cccc(Cl)c2c(=O)n1-c1ccccc1 [Example 1ba, 8-Chloro-3-methyl-1-oxo-2-phenyl-1,2-dihydro-isoquinoline-4-carboxylic acid [(S)-cyclopropyl-(4-fluoro-phenyl)-methyl]-amide]
240 nM	CC[C@H](NC(=O)c1c(C)n(-c2ccccc2)c(=O)c2c(Cl)cccc12)c1ccccc1Cl [Example 1bb, 8-Chloro-3-methyl-1-oxo-2-phenyl-1,2-dihydro-isoquinoline-4-carboxylic acid [(S)-1-(2-chloro-phenyl)-propyl]-amide]
49 nM	Cc1c(C(=O)N[C@H](c2ccccc2Cl)C2CC2)c2cccc(Cl)c2c(=O)n1-c1ccccc1 [Example 1bd, 8-Chloro-3-methyl-1-oxo-2-phenyl-1,2-dihydro-isoquinoline-4-carboxylic acid [(S)-(2-chloro-phenyl)-cyclopropyl-methyl]-amide]
45 nM	Cc1c(C(=O)N[C@H](c2ccccc2F)C2CC2)c2cccc(Cl)c2c(=O)n1-c1ccccc1 [Example 1be, 8-Chloro-3-methyl-1-oxo-2-phenyl-1,2-dihydro-isoquinoline-4-carboxylic acid [(S)-cyclopropyl-(2-fluoro-phenyl)-methyl]-amide]
31 nM	Cc1c(C(=O)N[C@H](c2cccc(F)c2)C2CCC2)c2cccc(Cl)c2c(=O)n1-c1ccccc1 [Example 1bh, 8-Chloro-3-methyl-1-oxo-2-phenyl-1,2-dihydro-isoquinoline-4-carboxylic acid [(S)-cyclobutyl-(3-fluoro-phenyl)-methyl]-amide]
31 nM	Cc1c(C(=O)N[C@H](c2ccc(F)cc2)C2CCC2)c2cccc(Cl)c2c(=O)n1-c1ccccc1 [Example 1bi, 8-Chloro-3-methyl-1-oxo-2-phenyl-1,2-dihydro-isoquinoline-4-carboxylic acid [(S)-cyclobutyl-(4-fluoro-phenyl)-methyl]-amide]
810 nM	Cc1c(C(=O)N[C@@H](c2cccc(F)c2)C2CC2)c2cccc(Cl)c2c(=O)n1-c1ccccc1 [Example 1bl, 8-Chloro-3-methyl-1-oxo-2-phenyl-1,2-dihydro-isoquinoline-4-carboxylic acid [(R)-cyclopropyl-(3-fluoro-phenyl)-methyl]-amide]
150 nM	Cc1c(C(=O)NC(c2ccccc2F)C2CCC2)c2cccc(Cl)c2c(=O)n1-c1ccccc1 (stereo not drawn) [Example 1bo, 8-Chloro-3-methyl-1-oxo-2-phenyl-1,2-dihydro-isoquinoline-4-carboxylic acid [cyclobutyl-(2-fluoro-phenyl)-methyl]-amide]
15 nM	Cc1c(C(=O)N[C@H](c2cccc(F)c2)C2CC2)c2cccc(F)c2c(=O)n1-c1ccccc1 [Example 7e, 8-Fluoro-3-methyl-1-oxo-2-phenyl-1,2-dihydro-isoquinoline-4-carboxylic acid [(S)-cyclopropyl-(3-fluoro-phenyl)-methyl]-amide]
10 nM	Cc1c(C(=O)N[C@H](c2cccc(F)c2)C2CCC2)c2cccc(F)c2c(=O)n1-c1ccccc1 [Example 7h, 8-Fluoro-3-methyl-1-oxo-2-phenyl-1,2-dihydro-isoquinoline-4-carboxylic acid [(S)-cyclobutyl-(3-fluoro-phenyl)-methyl]-amide]

Source: patent US8420667B2, “Isoquinolinone derivatives as NK3 antagonists” (H. Lundbeck A/S, priority 2008, dated 2013)
